Measurements taken from US10246442B2, “4-Aminoquinazolin compounds as prolyl hydroxylase inhibitors” (JANSSEN PHARMACEUTICA NV, priority 2011, dated 2019).
Blank lines part the entries; values can stand above or below the molecule they belong to.

What was measured:
PHD2181-417 = PHD2181-417 (Homo sapiens (Human), UniProt Q9GZT9); experiment: PHD enzymatic assay ([14C]-succinic acid production); format: biochemical; conditions: purified PHD2181-417, HIF-1α peptide substrate, 30 min pre-incubation; average of results
Chain of PHD2181-417 (Q9GZT9 181-417): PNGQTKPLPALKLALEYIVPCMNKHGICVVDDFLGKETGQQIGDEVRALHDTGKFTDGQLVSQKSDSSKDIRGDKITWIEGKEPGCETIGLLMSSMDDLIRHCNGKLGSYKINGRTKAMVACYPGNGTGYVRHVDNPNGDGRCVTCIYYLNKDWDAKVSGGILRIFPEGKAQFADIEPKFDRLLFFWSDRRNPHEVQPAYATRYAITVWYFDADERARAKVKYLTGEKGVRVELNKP
Experimental: Expression and Purification of PHD2181-417
The human PHD2 expression construct containing amino acids 181-417 of GenBank Accession ID NM_022051 was cloned into a pBAD vector (Invitrogen), incorporating both an N-terminal histidine tag and a Smt3-tag, both of which are cleaved by Ulp1. Protein production was achieved by expression in BL21 cells grown in Terrific Broth containing 100 μg/ml ampicillin. Cell cultures were inoculated at 37° C. and grown to an OD600 of 0.8. Cultures were induced with 0.1% arabinose and grown overnight at 20° C. with continuous shaking at 225 rpm. Cells were then harvested by centrifugation and stored at −80° C. Cell pellets were suspended in Buffer A (50 mM Tris-HCl pH 7.2, 100 mM NaCl, 100 mM L-arginine, 1 mM TCEP, 0.05% (w/v) NP-40, 50 mM imidazole) followed by the addition of lysozyme and benzonase. Cells were lysed by sonication and the lysate was cleared by centrifugation (15,000 rpm, 90 min, 4° C.). The protein was purified by nickel affinity chromatography using a HisTrap Crude FF column (GE Healthcare). Samples were eluted in Buffer A with a 50-200 mM imidazole gradient. Cleavage of the Smt tag with Ulp1 protease was achieved via overnight incubation with dialyzing against Buffer A. The PHD2181-417 sample was then passed over a second HisTrap Crude FF column (GE Healthcare) to remove uncleaved protein. The flow-through was then dialyzed into 50 mM MES pH 6.0, 1 mM TCEP, 5 mM NaCl for ion exchange chromatography on a HiTrap SP Cation Exchange column (GE Healthcare). The PHD2181-417 protein was eluted with a 0-0.2 M NaCl gradient. Fractions were pooled for further purification by size exclusion chromatography over a Superdex 75 Size Exclusion Column (GE Healthcare). Final protein was concentrated to 4 mg/ml and dialyzed in 10 mM PIPES pH 7.0, 100 mM NaCl, 0.5 mM TCEP.
(10 μM, California Peptide Research Inc., Napa, Calif.), and [5-^14C]-2-oxoglutaric acid (50 mCi/mmol, Moravek Chemicals, Brea, Calif.) in reaction buffer (40 mM Tris-HCl, pH 7.5, 0.4 mg/ml catalase, 0.5 mM DTT, 1 mM ascorbate) for 10 minutes. Compounds were pre-incubated for 30 min before starting the reaction (all test compounds were dissolved at 10 mM in 100% DMSO (w/v) and were tested with final compound concentrations at 100 μM in 1% DMSO (w/v)). The reaction was stopped by addition of 50 μl of 70 mM H3PO4 and 50 μl of 500 mM NaH2PO4, pH 3.2. Detection of [^14C]-succinic acid was achieved by separating from [5-^14C]-2-oxoglutaric acid by incubating the reaction mixture with 100 μl of 0.16 M DNP prepared in 30% perchloric acid. Next, 50 μl of unlabeled 20 mM 2-oxoglutaric acid/20 mM succinic acid, serving as carrier for the radioactivity, was added to the mixture, and was allowed to proceed for 30 minutes at room temperature. The reaction was then incubated with 50 μl of 1 M 2-oxoglutaric acid for 30 additional minutes at room temperature to precipitate the excess DNP. The reaction was then centrifuged at 2800×g for 10 minutes at room temperature to separate [^14C]-succinic acid in the supernatant from the precipitated [^14C]-dinitrophenylhydrazone. Fractions of the supernatant (400 μI) were counted using a beta counter (Beckman Coulter, Fullerton, Calif.). Inhibition of PHD2181-417 activity was measured as a decrease in succinic acid production. The IC50 values were estimated by fitting the data to a three-parameter logistic function using GraphPad Prism, version 4.02 (Graph Pad Software, San Diego, Calif.).

[1] = system: Erythropoietin secretion, Hep-3B cells; experiment: Cellular assay: EPO secretion in Hep-3B cells; format: cell-based; conditions: Homo sapiens, Hep3B, 100 μM compound, 24 hours, percent of EPO secretion relative to assay control compound 7-[(4-Chloro-phenyl)-(5-methyl-isoxazol-3-ylamino)-methyl]-quinolin-8-ol, read-out: Cellular % EPO Stimulation
Experimental: Hep-3B cells (ATCC, Manassas, Va.) were plated in 96-well plates at 20,000 cells per well in 100 μl of DMEM containing 10% fetal bovine serum, 1% non-essential amino acids, 50 IU/mL of penicillin and 50 μg/mL of streptomycin (all cell culture reagents from Invitrogen, Carlsbad, Calif.). Twenty-four hours after plating, compounds were added and incubated for an additional 24 hours. All compounds were tested with final compound concentrations at 100 μM. Fifty microliters of the supernatant was then transferred to a human Hypoxia assay kit (Meso-Scale Discovery, Gaithersburg, Md.). Erythropoietin in the supernatant was detected according to the manufacturer's instructions as follows. EPO detection plates were blocked with 3% BSA in PBS overnight and 50 μl of the supernatant was incubated at room temperature in an orbital shaker for 2 h. Twenty-five microliters of 0.5 μg/ml anti-EPO detection antibody was added for 2 hours at room temperature in an orbital shaker. After 3 washes in PBS, 150 μl of 1× read buffer is added and the plate is then read on the MSD SECTOR instrument. Data was analyzed by determining the percent of EPO secretion in the presence of 100 μM compound relative to an assay control compound, 7-[(4-Chloro-phenyl)-(5-methyl-isoxazol-3-ylamino)-methyl]-quinolin-8-ol.

Structure (SMILES): Cc1cccc(C)c1Oc1cc2c(Nc3ccccc3)nc(-n3cc(C(=O)O)cn3)nc2cc1F [Example 6, 1-[6-(2,6-Dimethyl-phenoxy)-7-fluoro-4-phenylamino-quinazolin-2-yl]-1H-pyrazole-4-carboxylic acid]
Enzyme pIC50 (PHD2181-417): 7.4
activation at 100 µM [1]: 22%

Structure (SMILES): O=C(O)c1cnn(-c2nc(NC3CCOCC3)c3cc(Oc4ccc(Cl)cc4)ccc3n2)c1 [Example 68, 1-(6-(4-Chlorophenoxy)-4-((tetrahydro-2H-pyran-4-yl)amino)quinazolin-2-yl)-1H-pyrazole-4-carboxylic acid]
Enzyme pIC50 (PHD2181-417): 6.9
activation at 100 µM [1]: 40%

Structure (SMILES): CCN(CC)c1nc(-n2cc(C(=O)O)cn2)nc2ccc(C(C)C)cc12 [Example 186, 1-(4-(diethylamino)-6-isopropylquinazolin-2-yl)-1H-pyrazole-4-carboxylic acid]
Enzyme pIC50 (PHD2181-417): 7.0
activation at 100 µM [1]: 43%

Structure (SMILES): CN(C)c1nc(-n2cc(C(=O)O)cn2)nc2ccc(C3CCCCC3)cc12 [Example 38, 1-(6-Cyclohexyl-4-(dimethylamino)quinazolin-2-yl)-1H-pyrazole-4-carboxylic acid]
Enzyme pIC50 (PHD2181-417): 7.2
activation at 100 µM [1]: 61%

Structure (SMILES): CCN(C)c1nc(-n2cc(C(=O)O)cn2)nc2cc(Cl)c(OC3CCCCC3)cc12 [Example 140, 1-(7-chloro-6-(cyclohexyloxy)-4-(ethyl(methyl)amino)quinazolin-2-yl)-1H-pyrazole-4-carboxylic acid]
Enzyme pIC50 (PHD2181-417): 7.2
activation at 100 µM [1]: 29%

Structure (SMILES): CN(C)c1nc(-n2cc(C(=O)O)cn2)nc2ccc(OC3CCCCC3)cc12 [Example 173, 1-(6-(cyclohexyloxy)-4-(dimethylamino)quinazolin-2-yl)-1H-pyrazole-4-carboxylic acid]
Enzyme pIC50 (PHD2181-417): 7.4
activation at 100 µM [1]: 62%

Structure (SMILES): CC(C)c1ccc2nc(-n3cc(C(=O)O)cn3)nc(NC3CC3)c2c1 [Example 188, 1-(4-(cyclopropylamino)-6-isopropylquinazolin-2-yl)-1H-pyrazole-4-carboxylic acid]
Enzyme pIC50 (PHD2181-417): 6.0
activation at 100 µM [1]: 35%

Structure (SMILES): CCN(CC)c1nc(-n2cc(C(=O)O)cn2)nc2cc(Cl)c(C(C)C)cc12 [Example 162, 1-(7-chloro-4-diethylamino-6-isopropylquinazolin-2-yl)-1H-pyrazole-4-carboxylic acid]
Enzyme pIC50 (PHD2181-417): 7.2
activation at 100 µM [1]: 40%

Structure (SMILES): CN1CCCN(c2nc(-n3cc(C(=O)O)cn3)nc3ccc(Oc4ccc(Cl)cc4)cc23)CC1 [Example 71, 1-(6-(4-Chlorophenoxy)-4-(4-methyl-1,4-diazepan-1-yl)quinazolin-2-yl)-1H-pyrazole-4-carboxylic acid]
Enzyme pIC50 (PHD2181-417): 6.7
activation at 100 µM [1]: 17%

Structure (SMILES): Nc1nc(-n2cc(C(=O)O)cn2)nc2ccc(C3CCCCC3)cc12 [Example 24, 1-(4-Amino-6-cyclohexylquinazolin-2-yl)-1H-pyrazole-4-carboxylic acid]
Enzyme pIC50 (PHD2181-417): 7.5
activation at 100 µM [1]: 36%

Structure (SMILES): CN(C)c1nc(-n2cc(C(=O)O)cn2)nc2cc(Oc3ccccc3)ccc12 [Example 77, 1-(4-(Dimethylamino)-7-phenoxyquinazolin-2-yl)-1H-pyrazole-4-carboxylic acid]
Enzyme pIC50 (PHD2181-417): 7.4
activation at 100 µM [1]: 75%

Structure (SMILES): CCN(CC)CCNc1nc(-n2cc(C(=O)O)cn2)nc2cc(F)c(Oc3c(C)cccc3C)cc12 [Example 10, 1-[4-(2-Diethylamino-ethylamino)-6-(2,6-dimethyl-phenoxy)-7-fluoro-quinazolin-2-yl]-1H-pyrazole-4-carboxylic acid]
Enzyme pIC50 (PHD2181-417): 5.9
activation at 100 µM [1]: 13%

Second part, led by results:

Enzyme pIC50 (PHD2181-417): 7.0
Structure (SMILES): O=C(O)c1cnn(-c2nc(NC3CC3)c3cc(Oc4ccc(Cl)cc4)ccc3n2)c1 [Example 62, 1-(6-(4-Chlorophenoxy)-4-(cyclopropylamino)quinazolin-2-yl)-1H-pyrazole-4-carboxylic acid]
activation at 100 µM [1]: 32%

Enzyme pIC50 (PHD2181-417): 6.8
Structure (SMILES): O=C(O)c1cnn(-c2nc(N3CCOCC3)c3cc(C4CCCCC4)ccc3n2)c1 [Example 33, 1-(6-Cyclohexyl-4-morpholinoquinazolin-2-yl)-1H-pyrazole-4-carboxylic acid]
activation at 100 µM [1]: 36%

Enzyme pIC50 (PHD2181-417): 7.1
Structure (SMILES): CCCCN(CCCC)c1nc(-n2cc(C(=O)O)cn2)nc2cc(F)c(Oc3c(C)cccc3C)cc12 [Example 11, 1-[6-(2,6-Dimethyl-phenoxy)-4-dibutylamino-7-fluoro-quinazolin-2-yl]-1H-pyrazole-4-carboxylic acid]
activation at 100 µM [1]: 9%

Enzyme pIC50 (PHD2181-417): 6.9
Structure (SMILES): Cc1cccc(C)c1Oc1cc2c(N3CCCCC3)nc(-n3cc(C(=O)O)cn3)nc2cc1F [Example 4, 1-[6-(2,6-Dimethyl-phenoxy)-7-fluoro-4-piperidin-1-yl-quinazolin-2-yl]-1H-pyrazole-4-carboxylic acid]
activation at 100 µM [1]: 17%

Enzyme pIC50 (PHD2181-417): 6.4
Structure (SMILES): O=C(O)c1cnn(-c2nc(N3CCOCC3)c3cc(OC4CCCCC4)ccc3n2)c1 [Example 172, 1-(6-(cyclohexyloxy)-4-morpholinoquinazolin-2-yl)-1H-pyrazole-4-carboxylic acid]
activation at 100 µM [1]: 18%

Enzyme pIC50 (PHD2181-417): 7.4
Structure (SMILES): CCN(CC)c1nc(-n2cc(C(=O)O)cn2)nc2ccc(-c3ccccc3)cc12 [Example 46, 1-(4-(Diethylamino)-6-phenylquinazolin-2-yl)-1H-pyrazole-4-carboxylic acid]
activation at 100 µM [1]: 26%

Enzyme pIC50 (PHD2181-417): 7.2
Structure (SMILES): O=C(O)c1cnn(-c2nc(NC3CC3)c3cc(OC4CCCCC4)c(F)cc3n2)c1 [Example 105, 1-(7-fluoro-6-(cyclohexyloxy)-4-(cyclopropylamino)quinazolin-2-yl)-1H-pyrazole-4-carboxylic acid]
activation at 100 µM [1]: 29%

Enzyme pIC50 (PHD2181-417): 7.4
Structure (SMILES): CCCN(CCC)c1nc(-n2cc(C(=O)O)cn2)nc2cc(F)c(Oc3c(C)cccc3C)cc12 [Example 12, 1-[6-(2,6-Dimethyl-phenoxy)-4-dipropylamino-7-fluoro-quinazolin-2-yl]-1H-pyrazole-4-carboxylic acid]
activation at 100 µM [1]: 9%

Enzyme pIC50 (PHD2181-417): 7.7
Structure (SMILES): CCN(CC)c1nc(-n2cc(C(=O)O)cn2)nc2cc(Oc3ccccc3)ccc12 [Example 83, 1-(4-(Diethylamino)-7-phenoxyquinazolin-2-yl)-1H-pyrazole-4-carboxylic acid]
activation at 100 µM [1]: 25%

Enzyme pIC50 (PHD2181-417): 7.7
Structure (SMILES): O=C(O)c1cnn(-c2nc(Nc3ccccc3)c3cc(Oc4ccc(Cl)cc4)ccc3n2)c1 [Example 69, 1-(6-(4-Chlorophenoxy)-4-(phenylamino)quinazolin-2-yl)-1H-pyrazole-4-carboxylic acid]
activation at 100 µM [1]: 23%
